Laboratory results from patent US9085527B2, “Fatty acid acylated salicylates and their uses” (Catabasis Pharmaceuticals, Inc., priority 2008, dated 2015).

Test system: NFκB
Assay: NFκB-driven luciferase reporter in RAW 264.7 cells challenged with LPS
Assay type: cell-based, mouse
Details: Mus musculus, RAW264.7, 200 ng/mL LPS for 3 hours, read-out: NFκB Inhibitory Activity, IC50 μM
Experimental: RAW 264.7 cells transfected with an NFκB-driven luciferase reporter are plated in 96 well plates. Cells are treated with Vehicle (0.1% ethanol) or test compounds for 2 hours. As a positive control for inhibition of NFκB signaling, 6 wells are treated with 10 μM dexamethasone. Cells are then challenged with 200 ng/mL LPS for 3 hours in the presence of test compounds. A subset of wells treated with vehicle should remain unstimulated with LPS to determine the floor signal of the assay. NFκB driven luciferase activity is developed by addition of BriteLite luciferase kit (Perkin-Elmer) and measured using a Victor V plate reader. NFκB activity (luciferase activity) for each treatment was normalized to Vehicle wells treated with LPS (% NFκB Response). AlamarBlue was used to monitor cell viability to ensure that inhibition of luciferase signal was not a result of compound cytotoxicity.
RAW 264.7 cells stably expressing a 3×NF-κB response element-driven luciferase reporter were seeded into 96 well plates. After 18 hours, cells were pre-treated with compounds of the invention for 2 hours, and then stimulated with LPS (lipopolysaccharide, 200 ng/mL) or vehicle control for 3 h in the presence of the compounds of the invention. A set of six vehicle was left unstimulated with LPS in order to measure the assay floor. AlamarBlue viability dye (Invitrogen) was added to cells simultaneously with the delivery of LPS (final AlamarBlue concentration of 10%). After the 3 h incubation period with LPS, cell viability was measured by reading fluorescence (excitation 550 nm, emission 595 nm) with a Perkin Elmer Victor V plate reader. Then cell media was aspirated from each well. Luciferase signal was then developed by addition of the Britelite Plus reagent (Perkin Elmer). Luciferase activity was measured with the Perkin Elmer Victor V plate reader. NF-κB activity was expressed as a percent of the vehicle control wells (stimulated with LPS). Compounds were tested at 6 dose point titrations in triplicate to determine IC50 values.

| SMILES | IC50 [µM] |
| --- | --- |
| CC/C=C\C/C=C\C/C=C\C/C=C\C/C=C\C/C=C\CCC(=O)Oc1ccccc1C(=O)O [Ia-1, 2-((4Z,7Z,10Z,13Z,16Z,19Z)-docosa-4,7,10,13,16,19-hexaenoyloxy)benzoic acid] | > 200 |
| CC/C=C\C/C=C\C/C=C\C/C=C\C/C=C\C/C=C\CCC(=O)NCCNC(=O)c1ccc(C(F)(F)F)cc1O [Ih-8, N-(2-(4Z,7Z,10Z,13Z,16Z,19Z)-docosa-4,7,10,13,16,19-hexaenamidoethyl)-2-hydroxy-4-(trifluoromethyl)benzamide] | > 200 |
| CC/C=C\C/C=C\C/C=C\C/C=C\C/C=C\C/C=C\CCC(=O)NC(Cc1ccccc1)C(=O)Nc1ccc(O)c(C(=O)O)c1 (centres unmarked) [IIIf-2, 5-(2-(4Z,7Z,10Z,13Z,16Z,19Z)-docosa-4,7,10,13,16,19-hexaenamido-3-phenylpropanamido)-2-hydroxybenzoic acid] | > 200 |
| CC/C=C\C/C=C\C/C=C\C/C=C\C/C=C\C/C=C\CCC(=O)NC(CC(C)C)C(=O)Oc1ccc(-c2ccc(F)cc2F)cc1C(=O)OCC (centres unmarked) [Ii-4, ethyl 4-(2-(4Z,7Z,10Z,13Z,16Z,19Z)-docosa-4,7,10,13,16,19-hexaenamido-4-methylpentanoyloxy)-2′,4′-difluorobiphenyl-3-carboxylate] | > 200 |
| CCCCC/C=C\C/C=C\C/C=C\C/C=C\CCCC(=O)Nc1ccc(O)c(C(=O)O)c1 [Compound 18, 2-hydroxy-5-(5Z,8Z,11Z,14Z)-icosa-5,8,11,14-tetraenamidobenzoic acid] | > 200 |
| CC/C=C\C/C=C\C/C=C\C/C=C\C/C=C\CCCC(=O)NCCNC(=O)c1ccccc1O [Ih-14] | < 200 |
| O=C(O)c1ccccc1O [SA, salicylic acid, reference compound] | > 200 |
| CC/C=C\C/C=C\C/C=C\C/C=C\C/C=C\C/C=C\CCC(=O)NCC(=O)Nc1ccc(O)c(C(=O)O)c1 [IIIf-1, 5-(2-(4Z,7Z,10Z,13Z,16Z,19Z)-docosa-4,7,10,13,16,19-hexaenamidoacetamido)-2-hydroxybenzoic acid] | > 200 |
| CC/C=C\C/C=C\C/C=C\C/C=C\C/C=C\CCCC(=O)Nc1ccc(O)c(C(=O)O)c1 [IIIg-1, 2-hydroxy-5-(5Z,8Z,11Z,14Z,17Z)-icosa-5,8,11,14,17-pentaenamidobenzoic acid] | < 200 |
| CC/C=C\C/C=C\C/C=C\C/C=C\C/C=C\C/C=C\CCC(=O)NCCN1C(=O)CC(SC[C@H](NC(=O)c2ccccc2O)C(=O)OC)C1=O (stereo partly drawn) [Ih-11, (R)-methyl 3-(1-(2-(4Z,7Z,10Z,13Z,16Z,19Z)-docosa-4,7,10,13,16,19-hexaenamidoethyl)-2,5-dioxopyrrolidin-3-ylthio)-2-(2-hydroxybenzamido)propanoate] | < 200 |
| CC/C=C\C/C=C\C/C=C\C/C=C\C/C=C\C/C=C\CCC(=O)NC(CC(C)C)C(=O)Nc1ccc(O)c(C(=O)O)c1 (centres unmarked) [III-6, 5-(2-(4Z,7Z,10Z,13Z,16Z,19Z)-docosa-4,7,10,13,16,19-hexaenamido-4-methylpentanamido)-2-hydroxybenzoic acid] | < 200 |
| CC/C=C\C/C=C\C/C=C\C/C=C\C/C=C\C/C=C\CCC(=O)O [DHA, docosahexaenoic acid, reference compound] | > 200 |
| CC/C=C\C/C=C\C/C=C\C/C=C\C/C=C\C/C=C\CCC(=O)NCCSSCCNC(=O)c1ccccc1O [Compound I-2, N-(2-(2-(2-(4Z,7Z,10Z,13Z,16Z,19Z)-docosa-4,7,10,13,16,19-hexaenamidoethyl)disulfanyl)ethyl)-2-hydroxybenzamide] | < 200 |
| CC/C=C\C/C=C\C/C=C\C/C=C\C/C=C\C/C=C\CCC(=O)N1CCN(C(=O)c2ccccc2O)CC1 [Ih-2, (4Z,7Z,10Z,13Z,16Z,19Z)-1-(4-(2-hydroxybenzoyl)piperazin-1-yl)docosa-4,7,10,13,16,19-hexaen-1-one] | > 200 |
| CC/C=C\C/C=C\C/C=C\C/C=C\C/C=C\C/C=C\CCC(=O)OC(C)OC(=O)c1ccccc1OC(C)=O (centres unmarked) [Ic-12, 1-((4Z,7Z,10Z,13Z,16Z,19Z)-docosa-4,7,10,13,16,19-hexaenoyloxy)ethyl 2-acetoxybenzoate] | < 200 |
| CC/C=C\C/C=C\C/C=C\C/C=C\C/C=C\C/C=C\CCC(=O)NCCNC(=O)c1cc(-c2ccc(F)cc2F)ccc1O [Ih-9, N-(2-(4Z,7Z,10Z,13Z,16Z,19Z)-docosa-4,7,10,13,16,19-hexaenamidoethyl)-2′,4′-difluoro-4-hydroxybiphenyl-3-carboxamide] | < 200 |
| CC/C=C\C/C=C\C/C=C\C/C=C\C/C=C\C/C=C\CCC(=O)NCCCOC(=O)c1ccccc1OC(C)=O [Ic-1, 3-(4Z,7Z,10Z,13Z,16Z,19Z)-docosa-4,7,10,13,16,19-hexaenamidopropyl 2-acetoxybenzoate] | > 200 |
| CC/C=C\C/C=C\C/C=C\C/C=C\C/C=C\C/C=C\CCC(=O)NC(CC(C)C)C(=O)Oc1cc(C(F)(F)F)ccc1C(=O)OCC (centres unmarked) [Ii-5, ethyl 2-(2-(4Z,7Z,10Z,13Z,16Z,19Z)-docosa-4,7,10,13,16,19-hexaenamido-4-methylpentanoyloxy)-4-(trilluoromethyl)benzoate] | < 200 |
| Nc1ccc(O)c(C(=O)O)c1 [Compound 5-ASA, 5-aminosalicylic acid, reference compound] | > 200 |
| CC/C=C\C/C=C\C/C=C\C/C=C\C/C=C\C/C=C\CCC(=O)NC(C)CNC(=O)c1ccccc1O (centres unmarked) [Ih-6, N-(2-(4Z,7Z,10Z,13Z,16Z,19Z)-docosa-4,7,10,13,16,19-hexaenamidopropyl)-2-hydroxybenzamide] | < 200 |
| CC/C=C\C/C=C\C/C=C\C/C=C\C/C=C\C/C=C\CCC(=O)NCCN(C)C(=O)c1ccccc1O [Ih-3, N-(2-(4Z,7Z,10Z,13Z,16Z,19Z)-docosa-4,7,10,13,16,19-hexaenamidoethyl)-2-hydroxy-N-methylbenzamide] | < 200 |

Now from value to compound:

| IC50 [µM] | SMILES |
| --- | --- |
| < 200 | CC/C=C\C/C=C\C/C=C\C/C=C\C/C=C\C/C=C\CCC(=O)Nc1ccc(O)c(C(=O)OC)c1 [IIIb-1, methyl 5-docosa-4,7,10,13,16,19-hexaenamido-2-hydroxybenzoate] |
| < 200 | CC/C=C\C/C=C\C/C=C\C/C=C\C/C=C\CCCC(=O)NCCNC(=O)c1cc(-c2ccc(F)cc2F)ccc1O [Ih-10, 2′,4′-difluoro-4-hydroxy-N-(2-(5Z,8Z,11Z,14Z,17Z)-icosa-5,8,11,14,17-pentaenamidoethyl)biphenyl-3-carboxamide] |
| < 200 | CC/C=C\C/C=C\C/C=C\C/C=C\C/C=C\C/C=C\CCC(=O)Oc1ccc(-c2ccc(F)cc2F)cc1C(=O)OCC [IVc-2, ethyl 4-((4Z,7Z,10Z,13Z,16Z,19Z)-docosa-4,7,10,13,16,19-hexaenoyloxy)-2′,4′-difluorobiphenyl-3-carboxylate] |
| < 200 | CC/C=C\C/C=C\C/C=C\C/C=C\C/C=C\C/C=C\CCC(=O)NC(Cc1ccccc1)C(=O)Oc1ccccc1C(=O)OCC (centres unmarked) [Ii-3, ethyl 2-(2-(4Z,7Z,10Z,13Z,16Z,19Z)-docosa-4,7,10,13,16,19-hexaenamido-3-phenylpropanoyloxy)benzoate] |
| < 200 | CC/C=C\C/C=C\C/C=C\C/C=C\C/C=C\C/C=C\CCC(=O)NCC(C)(C)NC(=O)c1ccccc1O [Compound I-4, N-(1-(4Z,7Z,10Z,13Z,16Z,19Z)-docosa-4,7,10,13,16,19-hexaenamido-2-methylpropan-2-yl)-2-hydroxybenzamide] |
| < 200 | CC/C=C\C/C=C\C/C=C\C/C=C\C/C=C\C/C=C\CCC(=O)NC(CC(C)C)C(=O)Oc1ccccc1C(=O)OCC (centres unmarked) [Compound I-1, ethyl 2-(2-(4Z,7Z,10Z,13Z,16Z,19Z)-docosa-4,7,10,13,16,19-hexaenamido-4-methylpentanoyloxy)benzoate] |
| < 200 | CC/C=C\C/C=C\C/C=C\C/C=C\C/C=C\C/C=C\CCC(=O)Nc1cccc(C(=O)O)c1 [Compound 17, 3-(4Z,7Z,10Z,13Z,16Z,19Z)-docosa-4,7,10,13,16,19-hexaenamidobenzoic acid] |
| < 200 | CC/C=C\C/C=C\C/C=C\C/C=C\C/C=C\C/C=C\CCC(=O)NCCNC(=O)c1ccccc1O [Ih-1, N-(2-(4Z,7Z,10Z,13Z,16Z,19Z)-docosa-4,7,10,13,16,19-hexaenamidoethyl)-2-hydroxybenzamide] |
| < 200 | CC/C=C\C/C=C\C/C=C\C/C=C\C/C=C\C/C=C\CCC(=O)Oc1cc(C(F)(F)F)ccc1C(=O)OCC [VIc-3, ethyl 2-((4Z,7Z,10Z,13Z,16Z,19Z)-docosa-4,7,10,13,16,19-hexaenoyloxy)-4-(trilluoromethyl)benzoate] |
| < 200 | CC/C=C\C/C=C\C/C=C\C/C=C\C/C=C\C/C=C\CCC(=O)N(C)CCNC(=O)c1ccccc1O [Ih-4, 2-hydroxy-N-(2-((4Z,7Z,10Z,13Z,16Z,19Z)—N-methyldocosa-4,7,10,13,16,19-hexaenamido)ethyl)benzamide] |
| < 200 | CC/C=C\C/C=C\C/C=C\C/C=C\C/C=C\C/C=C\CCC(=O)NCCOCCNC(=O)c1ccccc1O [Compound I-3, N-(2-(2-(4Z,7Z,10Z,13Z,16Z,19Z)-docosa-4,7,10,13,16,19-hexaenamidoethoxy)ethyl)-2-hydroxybenzamide] |
